# Results reported in patent US11931374B2, “Adenosine receptor modulators for the treatment of circadian rhythm disorders” (OXFORD UNIVERSITY INNOVATION LIMITED, priority 2016, dated 2024).
# Assays:
# Per2::Luc U2OS cells = experiment: Per2::Luc cell based circadian assay; conditions: Per2::Luc U2OS cells, dose response
# Protocol: U2OS cells stably transfected with a Per2::Luc reporter were cultured in DMEM supplemented with 10% FBS. For siRNA- and drug-based experiments, cells were seeded at 5,000 per well into white 384 well plates and transfected with 20 nM siRNA the next day. 2 days later, the cells were synchronized with 100 nM dexamethasone and the medium was replaced with phenol-red free DMEM supplemented with B-27 and 100 µM luciferin potassium salt, requisite drugs formulated in DMSO as a 1000× stock was added, and then sealed. Per2::Luc rhythms were recorded from a BMG Labtech Fluostar Omega plate reader maintained at 36° C. and readings taken from each well every hour. Data were then analysed using either Multicycle or Brass rhythm analysis software.
# Period2::Luciferase (Per2::Luc) stable U2OS transfects were cultured, as described above. A Greiner Bio-One 384 Well Plate (Polystyrene, F-bottom), was then seeded at 6000 cells per 50 μl well. Following a 24 hour period, the cells were treated with 0.1% dexamethasone, a glucocorticoid hormone analogue known to reset intracellular circadian rhythms, for 1 hour. Subsequently, the dexamethasone-containing medium was removed, the cells were washed with PBS and luciferin and test drug containing medium was added. The cells were then assayed for luminescence over a period of 96 hours in the BMG FLUOstar OPTIMA Microplate Reader to observe the periodicity and amplitude of the luminescence values.
# CRE::Luc reporter = experiment: CRE-Luc luciferase assay in U2OS cells; assay type: cell-based
# Protocol: At 60-80% confluence and >90% viability, the U2OS cells in the T-75 flask were washed twice with 6 ml phosphate-buffered saline (PBS) and subsequently treated with 4 ml of TrypLE™ Express trypsin replacement solution for 10 minutes. A Greiner Bio-One 96 Well Plate (white, TC treated), was then seeded at 8000 cells per well. Following 24 hours, the cells were transfected at 50-70% confluency with CRE-luc Vector generated in-house with Viafect transfection reagent at 1:4 ratio (100 ng DNA/well) following manufacturers recommendations.
# 24 hours after transfection, the medium in the 96 well plate was changed to a serum-free medium with 1 mM luciferin. The cells were then incubated in serum starvation conditions for 6-8 hours, this was optimised to yield the greatest signal strength and lowest noise when assayed with forskolin control. Following the incubation period, the CRE-Luc U2OS cells were treated with the appropriate drug and their luminescence values were measured after 6 hours in the BMG FLUOstar OPTIMA Microplate Reader. […] Unless stated otherwise, forskolin was used as a positive control, and 1% DMSO was used as a negative control.
# CREB = CREB phosphorylation in U2OS cells; assay type: cell-based
# Fos = Fos mRNA after drug treatment; assay type: cell-based; conditions: 10 uM
# Protocol: (§1) Total RNA was extracted using the microRNeasy column method (Qiagen, Hilden, Germany). Quality and quantity of RNA were measured using an Agilent Bioanalyzer and a Nanodrop1000 (Thermo Fisher Scientific, Waltham, MA USA), respectively.
# (§2) RNA samples were prepared as described for microarray hybridisation. cDNA was synthesized with a qScript cDNA synthesis kit (Quanta Biosciences, Gaithersburg, MD), and quantitative PCR (qPCR) was conducted with Sybr green I and an SDS7700 thermal cycler (Applied Biosystems, Foster City, CA). Relative quantification of transcript levels was done as described previously (Peirson et al., Nucleic Acids Res. 2003 Jul. 15; 31(14):e73.). The geometric mean of a minimum of three housekeeping genes was used for normalization (Gapdh, ActB, GusB and Rps9 for example).
# cJun = cJun mRNA after drug treatment; assay type: cell-based; conditions: 10 uM
# Protocol: as §1, §2
smiles,measurement,setting,value
"Nc1nc(-c2ccccc2)c2c(n1)-c1cc(OCCN3CCOCC3)ccc1C2=O [JNJ40255293, 2-amino-8-[2-(4-morpholinyl)ethoxy]-4-phenyl-5H-indeno[1,2-d]pyrimidin-5-one]",circadian period length,Per2::Luc U2OS cells,increased circadian period length in a dose dependent manner
same,CREB-driven transcription (CRE::Luc reporter),CRE::Luc reporter,does not increase signals from the CRE::Luc reporter
same,CREB phosphorylation,CREB,no changes in CREB phosphorylation
same,Fos mRNA,Fos,Upregulation
same,cJun mRNA,cJun,Upregulation
